{
  "source": "patent US6518278B1",
  "about": "“Carcinostatic substance for compatible administration, process of administrating same and process of rapidly inspecting same” (Debio Pharm S.A., priority 1994, dated 2003)",
  "key": {"living cells [1]": {"system": "living cells", "assay": "Fluorescence dye bonded to living cells: does the cell stay alive", "type": "cell-based", "source_text": "As the said fluorescence dye, the above DAPI can be employed. Although the DAPI itself is known, the use for the observation of the cell division while keeping the cells alive is unknown. The present inventors have investigated such fluorescence dye as Hoechst 33258, acridine orange and acridine yellow other than the DAPI."}, "living cells [2]": {"system": "living cells", "details": "dye bonded to the cell; inventor's earlier meeting article (1990); cited from earlier work"}},
  "note": "Like-named read-outs stand apart in the source and are kept apart here.",
  "data": [
    {"compound": "CN1CCN(c2ccc3[nH]c(-c4ccc5[nH]c(-c6ccc(O)cc6)nc5c4)nc3c2)CC1", "note": "[Hoechst 33258]", "values": [
      {"measurement": "toxicity of fluorescence dye to the cell", "setting": "living cells [1]; dye bonded to living cells", "result": "toxicity is too strong to keep the cell alive"}
    ]},
    {"compound": "CN(C)c1ccc2cc3ccc(N(C)C)cc3nc2c1", "note": "[acridine orange]", "values": [
      {"measurement": "toxicity of fluorescence dye to the cell", "setting": "living cells [1]", "result": "toxicity is too strong to keep the cell alive"}
    ]},
    {"compound": "Cl.Cl.N=C(N)c1ccc(-c2cc3ccc(C(=N)N)cc3[nH]2)cc1", "note": "[DAPI, 4′,6-diamidino-2-phenylindole•2HCl]", "values": [
      {"measurement": "effect of fluorescence dye on living cells", "setting": "living cells [2]", "result": "without extinguishing the cells"}
    ]},
    {"compound": "Cc1cc2cc3cc(C)c(N)cc3nc2cc1N", "note": "[acridine yellow]", "values": [
      {"measurement": "toxicity of fluorescence dye to the cell", "setting": "living cells [1]", "result": "toxicity is too strong to keep the cell alive"}
    ]}
  ]
}
